Experimental data taken from patent publication US8575135B2 (Gilead Sciences, Inc., priority 2011, dated 2013).
Where two headings read alike, the source gives them in different places.

Tests used:
Assay in all cases: microbe, parasite or virus in culture
Conditions in all cases: Hepatitis C virus
[1] = test system: stable HCV 1a RLuc replicon cells (genotype 1a H77 replicon); assay type: cell-based
[2] = test system: stable HCV 2a JFH-1 Rluc replicon cells (L31 present in NS5A); assay type: cell-based
[3] = test system: NS5A chimeric genotype 1b Con1 replicon with genotype 3a S52 strain NS5A gene; assay type: cell-based, HCV
How it was run: (§1)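 Con1-based 3a and 4a chimeras carried a Pi-RLuc reporter and were transiently transfected into Huh-Lunet cells; the JFH-1-based 2b chimera (RLuc-Neo) was used transiently or as stable replicon cells.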

[4] = test system: NS5A chimeric genotype 2a JFH-1 replicon with genotype 2a J6 strain NS5A gene (M31 present); assay type: cell-based, HCV
[5] = test system: NS5A chimeric genotype 2a JFH-1 replicon with genotype 2b MD2b-1 strain NS5A gene (M31 present); assay type: cell-based, HCV
How it was run: as §1

[6] = test system: NS5A chimeric genotype 1b Con1 replicon with genotype 4a ED43 strain NS5A gene; assay type: cell-based, HCV
[7] = test system: 1a Pi-Rluc replicon with Q30R in genotype 1a NS5A; assay type: cell-based, HCV
How it was run: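 Q30R introduced by site-directed mutagenesis into genotype 1a Pi-RLuc replicon; RNA transiently transfected into Huh-7-derived cured-51 cells.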

SMILES | EC50 ([1]; read-out: 1a) [nM] | EC50 ([1]; read-out: 1a (nM)) [nM] | EC50 ([2]; read-out: 2a JFH) [nM] | EC50 ([2]; read-out: 2a JFH (nM)) [nM] | EC50 ([3]; read-out: 3a) [nM] | EC50 ([3]; read-out: 3a (nM)) [nM] | EC50 ([4]; read-out: 2a J6) [nM] | EC50 ([4]; read-out: 2a J6 (s) (nM)) [nM] | EC50 ([4]; read-out: 2a Jb (t) (nM)) [nM] | EC50 ([5]; read-out: 2b) [nM] | EC50 ([5]; read-out: 2b (s) (nM)) [nM] | EC50 ([5]; read-out: 2b (t) (nM)) [nM] | EC50 ([6]; read-out: 4a) [nM] | EC50 ([6]; read-out: 4a (s) (nM)) [nM] | EC50 ([6]; read-out: 4a (t) (nM)) [nM] | EC50 ([7]; read-out: 1a Q30R) [nM] | EC50 ([7]; read-out: 1a Q30R (nM)) [nM]
COC(=O)N[C@H](C(=O)N1C[C@@H](C)C[C@H]1c1nc2ccc3cc4c(cc3c2[nH]1)OCc1cc(-c2cnc([C@@H]3CCCN3C(=O)[C@H](NC(=O)OC)c3ccccc3)[nH]2)ccc1-4)C(C)C [Example NB, Methyl {(1R)-2-[(2S)-2-(5-{2-[(2S,4S)-1-{(2S)-2-[(methoxycarbonyl)amino]-3-methylbutanoyl}-4-methylpyrrolidin-2-yl]-1,11-dihydroisochromeno[4′,3′:6,7]naphtho[1,2-d]imidazol-9-yl}-1H-imidazol-2-yl)pyrrolidin-1-yl]-2-oxo-1-phenylethyl}carbamate] | < 1 | 0.01 | < 1 | 0.004 | < 1 | 0.011 | < 1 | 0.138 | 0.02 | < 1 | 0.039 | 0.007 | < 1 | 0.025 | 0.023 | < 1 | 0.034
COC(=O)N[C@H](C(=O)N1C[C@@H](C)C[C@H]1c1nc2ccc3cc4c(cc3c2[nH]1)OCc1cc(-c2cnc([C@@H]3CC[C@H](C)N3C(=O)[C@@H](NC(=O)OC)C(C)C)[nH]2)ccc1-4)C(C)C [Example NC, Methyl {(2S)-1-[(2S,5S)-2-(5-{2-[(2S,4S)-1-{(2S)-2-[(methoxycarbonyl)amino]-3-methylbutanoyl}-4-methylpyrrolidin-2-yl]-1,11-dihydroisochromeno[4′,3′:6,7]naphtho[1,2-d]imidazol-9-yl}-1H-imidazol-2-yl)-5-methylpyrrolidin-1-yl]-3-methyl-1-oxobutan-2-yl}carbamate] | < 1 | 0.007 | < 1 | 0.005 | < 1 | 0.014 | < 1 | 0.762 | 0.089 | < 1 | 0.191 | 0.068 | < 1 | 0.026 | 0.011 | < 1 | 0.06
COC(=O)N[C@H](C(=O)N1C[C@@H](C)C[C@H]1c1ncc(-c2ccc3c(c2)COc2cc4c(ccc5nc([C@@H]6C[C@H](C)CN6C(=O)[C@@H](NC(=O)OC)C(C)C)[nH]c54)cc2-3)[nH]1)C(C)C [Example ND, Methyl {(2S)-1-[(2S,5S)-2-(5-{2-[(2S,4S)-1-{(2S)-2-[(methoxycarbonyl)amino]-3-methylbutanoyl}-4-methylpyrrolidin-2-yl]-1,11-dihydroisochromeno[4′,3′:6,7]naphtho[1,2-d]imidazol-9-yl}-1H-imidazol-2-yl)-4-methylpyrrolidin-1-yl]-3-methyl-1-oxobutan-2-yl}carbamate] | < 1 | 0.02 | < 1 | 0.014 | < 1 | 0.035 | < 1 | 2.34 | 0.314 | < 1 | 1.32 | 0.27 | < 1 | 0.044 | 0.031 | < 1 | 0.057
COC(=O)N[C@H](C(=O)N1C[C@@H](C)C[C@H]1c1ncc(-c2ccc3c(c2)COc2cc4c(ccc5nc([C@@H]6C[C@H](C)CN6C(=O)[C@H](NC(=O)OC)c6ccccc6)[nH]c54)cc2-3)[nH]1)C(C)C [Example NF, Methyl {(2S)-1-[(2S,4S)-2-(5-{2-[(2S,4S)-1-{(2R)-2-[(methoxycarbonyl)amino]-2-phenylacetyl}-4-methylpyrrolidin-2-yl]-1,11-dihydroisochromeno[4′,3′:6,7]naphtho[1,2-d]imidazol-9-yl}-1H-imidazol-2-yl)-4-methylpyrrolidin-1-yl]-3-methyl-1-oxobutan-2-yl}carbamate] | < 1 | 0.011 | < 1 | 0.006 | < 1 | 0.017 | < 1 | 0.218 | 0.031 | < 1 | 0.064 | 0.018 | < 1 | 0.012 | 0.009 | < 1 | 0.017
COC(=O)N[C@H](C(=O)N1[C@@H](C)CC[C@H]1c1ncc(-c2ccc3c(c2)COc2cc4c(ccc5nc([C@@H]6CC[C@H](C)N6C(=O)[C@@H](NC(=O)OC)C(C)C)[nH]c54)cc2-3)[nH]1)C(C)C [Example NG, Methyl {(2S)-1-[(2S,5S)-2-(5-{2-[(2S,5S)-1-{(2S)-2-[(methoxycarbonyl)amino]-3-methylbutanoyl}-5-methylpyrrolidin-2-yl]-1,11-dihydroisochromeno[4′,3′:6,7]naphtho[1,2-d]imidazol-9-yl}-1H-imidazol-2-yl)-5-methylpyrrolidin-1-yl]-3-methyl-1-oxobutan-2-yl}carbamate] | < 1 | 0.006 | < 1 | 0.01 | < 1 | 0.02 | < 1 | 1.67 | 0.37 | < 1 | 0.135 | 0.063 | < 1 | – | 0.008 | < 1 | 0.243
CC[C@H](C)[C@H](NC(=O)OC)C(=O)N1C[C@@H](COC)C[C@H]1c1nc2ccc3cc4c(cc3c2[nH]1)OCc1cc(-c2cnc([C@@H]3CC[C@H](C)N3C(=O)[C@@H](NC(=O)OC)[C@@H](C)CC)[nH]2)ccc1-4 [Example NJ, Methyl {(2S,3S)-1-[(2S,5S)-2-(5-{2-[(2S,4S)-1-{(2S,3S)-2-[(methoxycarbonyl)amino]-3-methylpentanoyl}-4-(methoxymethyl)pyrrolidin-2-yl]-1,11-dihydroisochromeno[4′,3′:6,7]naphtho[1,2-d]imidazol-9-yl}-1H-imidazol-2-yl)-5-methylpyrrolidin-1-yl]-3-methyl-1-oxopentan-2-yl}carbamate] | < 1 | 0.007 | < 1 | 0.007 | < 1 | 0.019 | < 1 | 0.939 | 0.099 | < 1 | 0.416 | 0.094 | < 1 | 0.017 | – | < 1 | 0.025
COC[C@H]1C[C@@H](c2ncc(-c3ccc4c(c3)COc3cc5c(ccc6nc([C@@H]7C[C@H](COC)CN7C(=O)[C@@H](NC(=O)OC)C(C)C)[nH]c65)cc3-4)[nH]2)N(C(=O)[C@@H](NC(=O)OC)C(C)C)C1 [Example OI, Methyl {(2S)-1-[(2S,4S)-2-(5-{2-[(2S,4S)-1-{(2S)-2-[(methoxycarbonyl)amino]-3-methylbutanoyl}-4-(methoxymethyl)pyrrolidin-2-yl]-1,11-dihydroisochromeno[4′,3′:6,7]naphtho[1,2-d]imidazol-9-yl}-1H-imidazol-2-yl)-4-(methoxymethyl)pyrrolidin-1-yl]-3-methyl-1-oxobutan-2-yl}carbamate] | < 1 | 0.024 | < 1 | 0.01 | < 1 | 0.206 | < 1 | 0.326 | 0.061 | < 1 | 0.629 | 0.178 | < 1 | 0.007 | 0.036 | < 1 | 0.086
COC[C@H]1C[C@@H](c2nc3ccc4cc5c(cc4c3[nH]2)OCc2cc(-c3cnc([C@@H]4CCCN4C(=O)[C@@H](NC(=O)OC)C(C)C)[nH]3)ccc2-5)N(C(=O)[C@H](N)c2ccccc2)C1 [Example OO, Methyl {(2S)-1-[(2S)-2-(5-{2-[(2S,4S)-1-[(2R)-2-amino-2-phenylacetyl]-4-(methoxymethyl)pyrrolidin-2-yl]-1,11-dihydroisochromeno[4′,3′:6,7]naphtho[1,2-d]imidazol-9-yl}-1H-imidazol-2-yl)pyrrolidin-1-yl]-3-methyl-1-oxobutan-2-yl}carbamate] | < 1 | 0.072 | < 1 | 0.015 | < 1 | 0.028 | < 1 | 0.259 | 0.028 | < 1 | 0.076 | 0.02 | < 1 | 0.018 | 0.086 | < 1 | 0.139
